Entries after “also recorded” stand apart in the source; their conditions may differ. Read-outs that look alike come from different tables or passages of the source.
Experiments:
[1] = test system: embryonic rat cortical cells; assay: Aβ toxicity assay, cell viability by MTT; type: cell-based; details: 5 μM Aβ + 10 μM inhibitor, 48 h; Aβ alone 73% (GW5074 experiment), 70% (ZM336372 experiment)
[2] = test system: ppErk1/2; assay: ppERK levels in cortex of mice, Western blot; type: in vivo
Experimental: FIGS. 4A-4C. […] After this time mice were sacrificed and the levels of pcRaf-1[Ser338] and pERK1/2 were analyzed by Western blot as described in Experimental Procedures. […] (n=5) (FIG. 4B) in the cortex than untreated Tg mice (n=4). The differences were significant for ppERKs, *P=0.016 and pcRaf-1[Ser338], *P=0.018. (FIG. 4C) Phosphorylation of cRaf-1 at Ser 259 and Ser 338. […] NT, wild-type age-matched control littermates.
(§1) Western blotting. […] (1:100) (GenScript Corporation, NJ, USA).

[3] = test system: pcRaf-1[Ser338]; assay: pcRaf-1[Ser338] levels in cortex of mice, Western blot; type: in vivo; details: wild type NT mice
[4] = test system: APPswe (Tg) and NT mice; type: in vivo; details: during treatment (20 mg/kg/day)
Text: RAWM. For the RAWM task of spatial working memory (Arendash et al. (2001b); Arendash et al. (2007); Ethell et al. (2006)), an aluminum insert was placed into a 100 cm circular pool to create six radially distributed swim arms emanating from a central circular swim area (Arendash et al. (2001a); Ethell et al. (2006)). An assortment of 2-D and 3-D visual cues surrounded the pool. The number of errors prior to locating which one of the six swim arms contained a submerged escape platform (9 cm diameter) was determined in each of five trials every day. There was a 20-min time delay between the 4th trial (T4; final acquisition trial) and 5th trial (T5; memory retention trial). […] During each trial (60 s maximum), the mouse was returned to that trial's start arm upon swimming into an incorrect arm and the number of seconds required to locate the submerged platform was recorded. […]
For statistical analysis of RAWM data, the 8 days of pre-treatment testing (four 2-day blocks) or the 9 days of during-treatment testing (three 3-day blocks) were evaluated for individual blocks, as well as over all blocks, using one-way ANOVAs. […] One-way ANOVAs were employed for each of the four behavioral measures analyzed, followed by post hoc Fisher's LSD test to determine group differences. […]

[5] = test system: PKA; assay: PKA kinase activity ELISA in brain extracts of treated mice; details: Tg mice, four months treatment
[6] = test system: IκBα; assay: IκBα levels in cortex of mice, Western blot; details: two months treatment
[7] = test system: Aβ40; assay: Total Aβ40 levels in cortex, ELISA; type: in vivo; details: Tg mice, Study 2 (4 mo. treatment), ns vs Tg
[8] = Kane et al. (2006); cited from earlier work
[9] = test system: APPswe (Tg) and NT mice; assay: Cognitive interference task of working memory; type: in vivo
Text: Interference test details. Cognitive Interference Task. This task involves two radial arm water maze set-ups in two different rooms, and different sets of visual cues. The task requires animals to remember a set of visual cues, so that following interference with a different set of cues, the initial set of cues can be recalled to successfully solve the radial arm water maze task. A set of […] behavioral measures were examined. Behavioral measures are: A1-A3 (Composite three-trial recall score from first 3 trials performed in RAWM “A”), “B” (proactive interference measure attained from a single trial in RAWM “B”), A4 (retroactive interference measure attained during a single trial in RAWM “A”), and “A5” (delayed-recall measure attained from a single trial in RAWM “A” following a 20 min delay between A4 and A5). As with the standard RAWM task, this interference task involves the platform location being changed daily to a different arm for both of the RAWM set-ups utilized, and different start arms for each day of testing for both RAWM set-ups. For A1 and B trials, the animal is initially allowed one minute to find the platform on their own before they are guided to the platform. Then the actual trial is performed in each case. As with the standard RAWM task, animals were given 60-s to find the escape platform, with the number of errors and escape latency recorded for each trial.
Cognitive interference task. This task involves two RAWM setups in two different rooms, and three different sets of visual cues. The task requires animals to remember a set of visual cues, so that following interference with a different set of cues, the initial set of cues can be recalled to successfully solve the RAWM task. A set of four behavioral measures was examined through six successive daily trials. Behavioral measures were A1-A3 (Composite three-trial recall score from first three trials performed in RAWM “A”), “B” (proactive interference measure attained from a single trial in RAWM “B”), A4 (retroactive interference measure attained during a single trial in RAWM “A”), and “A5” (delayed-recall measure attained from a single trial in RAWM “A” following a 20 min delay between A4 and A5). As with the standard RAWM task, this interference task involves the platform location being changed daily to a different arm for both of the RAWM setups utilized, and different start arms for each day of testing for both RAWM setups. For A1 and B trials, the animal is initially allowed 1 min to find the platform on its own before being guided to the platform. Then the actual trial is performed in each case. Also, between each trial, animals were placed into a Y-maze apparatus for 30 seconds as an inter-trial interfering experience. As with the standard RAWM task, animals were given 60 s to find the escape platform for each trial, with the number of errors and escape latency recorded for each trial.
For statistical analysis of RAWM data, the 8 days of pre-treatment testing (four 2-day blocks) or the 9 days of during-treatment testing (three 3-day blocks) were evaluated for individual blocks, as well as over all blocks, using one-way ANOVAs. Thereafter, post hoc pair-by-pair differences between groups were resolved with the Fisher LSD (least significant difference) test.

[10] = test system: pNF-κB[Ser276]; assay: pNF-κB[Ser276] levels in cortex of mice, Western blot; type: in vivo; details: for levels of pNF-κB[Ser276] vs control Tg mice: cortex, 20 mg/kg/day, four months
Text: (§2) FIGS. 5A-5E. […] NT, wild type age-matched control littermates.
as §1

[11] = test system: PKA; details: cited from earlier work
[12] = test system: Cox-2; assay: Cox-2 levels in cortex of mice, Western blot; type: in vivo; details: for levels of Cox-2 vs control Tg mice: cortex, 20 mg/kg/day, four months
[13] = test system: Aβ42; assay: Total Aβ42 levels in cortex, ELISA; type: in vivo; details: Tg mice, ns vs Tg
Experimental: Determination of Aβ levels. The levels of Aβ1-40 and Aβ1-42 were quantified in the brain tissues by ELISA.
Total Aβ levels. Brain tissues were prepared by sonication of the samples in 5 M guanidine HCl, and 50 mM Tris-HCl. pH 8.0. After sonication, samples were incubated for 3 h at room temperature and centrifuged at 16,000×g for 20 min at 4° C. The supernatants were stored at −80° C. For analysis, the supernatants were diluted using PBS with 5% BSA and 0.03% Tween-20 supplemented with 1× protease inhibitor cocktail (Roche, USA) and further used to determine total Aβ levels using a commercial ELISA kit (Invitrogen, Carlsbad, Calif., USA), according to the manufacturer's recommendations.
Aβ levels represent the concentration of amyloid peptides in the cortex (A, C) and hippocampus (B, D) of the mice expressed as picogram by milligram (pg/mg) of brain tissue. Total peptide levels correspond to the levels found in the supernatant of cortical tissues homogenized in 5 M guanidinium chloride. Soluble Aβ levels correspond to the levels found in the supernatant of hippocampal tissues of the mice homogenized in the Triton-soluble fractions. ns, Not significant (P>0.05).

[14] = test system: p-CREB[Ser 133]; assay: CREB phosphorylated at Ser 133 in cortex, Western blot; type: in vivo; details: Tg mice, four months treatment, vs control Tg mice
Text: as §1

[15] = test system: iNOS; assay: iNOS levels in cortex of mice, Western blot; type: in vivo
Text: as §2, §1

[16] = test system: pNFκB/p65 (Ser276); assay: Aβ-dependent NFκB/p65 phosphorylation at serine 276 in cortical cells, Western blot; type: cell-based, rat; details: 10 μM GW5074 + 5 μM Aβ, 48 h, in comparison to Aβ treated cells
[17] = test system: embryonic rat cortical cells; assay: Aβ toxicity assay, calcein-AM/propidium iodide staining; type: cell-based; details: 5 μM Aβ + 10 μM GW5074, 48 h
[18] = wild type mice (data not shown)

In the case of `Cc1ccc(NC(=O)c2cccc(N(C)C)c2)cc1NC(=O)c1ccc(O)cc1` [ZM336372, N-[5-(dimethyl-aminobenzamide)-2-methylphenyl]-4-hydroxybenzamide], the “cell survival, % of control levels (MTT)” value [1] is reported as 86%.
With `CNC(=O)c1cc(Oc2ccc(NC(=O)Nc3ccc(Cl)c(C(F)(F)F)c3)cc2)ccn1` [Sorafenib, 4-(4-phenoxy)-N2-methylpyridine-2 carboxamide 4-methylbenzenesulfonate] the “decrease in levels of ppERK compared to control Tg mice” value ([2]; Tg mice, cortex, 20 mg/kg gavage, two months) was 29%, the “ERK phosphorylation vs untreated NT mice” value ([2]; wild type NT mice) was “No changes” and the “cRaf-1 phosphorylation vs untreated NT mice” value [3] was “No changes”. For the same compound, the “T5 errors over all blocks of RAWM testing” value ([4]; NT mice, NT vehicle 0.9±0.4) was 1.1±0.2 errors, the “T5 errors over all blocks of RAWM testing” value ([4]; Tg mice, Tg vehicle 1.9±0.3) was 1.9±0.2 errors and the “PKA activity in cortex” value [5] was “restored PKA activity in Tg mice to values similar to those observed in NT mice”. The “PKA activity in cortex” value ([5]; listed as sorafenib) was “comparable to NT mice”, the “higher levels of IκBα protein expression compared to control Tg mice” value [6] was 117% and the Aβ40 total levels [7] was 36,140 ± 9.281 ns, P = 0.5193 pg/mg. The blood-brain barrier [8] was “crosses the blood-brain barrier”, the “working memory in interference test vs vehicle-treated APPswe mice” value ([9]; APPswe mice, 2 months treatment, p<0.01) was “significant improvement in working memory” and the “performance in any measure of cognitive interference testing, NT+sorafenib vs NT” value ([9]; NT mice) was “no differences in performance”. For the same compound, the “20-min delayed recall (A5), beneficial effects” value ([9]; Tg mice, final day of testing) was “not evident”, the “three-trial recall (A1-A3)” value ([9]; Tg mice, final day of testing, errors and escape latency) was “performed identically to NT mice; also recorded: comparable to NT controls” and the “three-trial recall (A1-A3)” value ([9]; Tg mice, first day of interference testing, compared to NT mice) was “impaired”. For the same compound, the “20-min delayed recall (A5)” value ([9]; Tg mice, first day of testing) was “significantly better and no different from NT mice; also recorded: much better delayed recall performance”, the “proactive interference (B)” value ([9]; Tg mice, first day of testing) was “relatively high escape latency” and the “proactive interference (B)” value ([9]; Tg mice, last day of testing) was “performed significantly better than Tg controls and identically to NT mice; also recorded: performed substantially better than Tg controls”. For the same compound, the “retroactive interference (A4)” value ([9]; first and last day of testing) was “no effect of genotype or sorafenib treatment”, the “levels of pNF-κB[Ser276] vs control Tg mice” value [10] was “significantly lower levels” and the “levels of pNF-κB[Ser276] vs control Tg mice” value ([10]; listed as sorafenib) was “significantly reduced”. The “pNF-κB[Ser276] levels vs untreated wild type mice” value [10, 18] was “No differences”, the IC50 [11] was > 10 µM and the “levels of Cox-2 vs control Tg mice” value [12] was “lower levels”. The “levels of Cox-2 vs control Tg mice” value ([12]; listed as sorafenib) was “substantially lower levels”, the “Cox-2 levels vs untreated wild type mice” value [12, 18] was “No differences” and the Aβ42 total levels ([13]; Study 1 (2 mo. treatment)) was 22,570 ± 5,946 ns, P = 0.4568 pg/mg. The Aβ42 total levels ([13]; Study 2 (4 mo. treatment)) was 71,980 ± 26,210 ns, P = 0.9914 pg/mg, the “CREB phosphorylation at Ser 133 in cortex” value [14] was “significantly increased; also recorded: significantly higher” and the “lower expression of iNOS than control Tg mice” value ([15]; Tg mice, cortex, 20 mg/kg/day, four months) was 81%. For the same compound, the “iNOS levels vs untreated wild type mice” value [15, 18] was “No differences”.
For `O=C1Nc2ccc(I)cc2/C1=C/c1cc(Br)c(O)c(Br)c1` [GW5074, 5-iodo-3-[(3,5-dibromo-4-hydroxyphenyl)methy-lene]-2-indolinone], the “NFκB/p65 phosphorylation at serine 276” value [16] was “nine-fold decrease”, the “cell survival, % of control levels (MTT)” value [1] was 93% and the “number of PI stained cells after Aβ exposure” value [17] was “decreased dramatically”.
